US20180327367A1, “MACROCYCLIC BROAD SPECTRUM ANTIBIOTICS” (priority 2015, published 2018)
Converted amounts (≈) assume the structure as drawn. Like-named read-outs stand apart in the source and are kept apart here.

Legend:
Format in all cases: cell-based
[1] = system: Escherichia coli ATCC 25922; test: Minimum inhibitory concentration, broth micro-dilution (CLSI), E. coli; settings: Escherichia coli, ATCC25922, 22 h
Procedure: Cells were inoculated onto plates of Trypyticase Soy Agar or Luria Agar respectively and grown at 35° C. for 20 hours. Inocula suspensions were prepared by scraping cells into 1 mL of testing media (cation adjusted Mueller Hinton Broth supplemented with 0.002% v/v Tween-80) and diluting to a final OD600 nm of 0.01.
(§1) Test compounds were prepared in DMSO at a concentration of 10 mg/mL. […] In protocol 2, the compound stocks were diluted into testing media at a concentration of 4 μg/mL and serial 2-fold dilutions were made in the same media, in 96-well U bottom microtiter dishes, for a total of 10 compound concentrations. In protocol 3, compound stocks were diluted into testing media at a concentration of 0.5 μg/mL, with serial 2-fold dilutions conducted as described above. […] Inocula suspensions were added to the 2-fold serial dilutions of test compounds to a final density of OD OD600 nm of 0.0005 and incubated at 35° C. for 22 hours.

[2] = system: Methicillin Resistant Staphylococcus aureus strain USA 300, NRS384; test: Minimum inhibitory concentration, broth micro-dilution (CLSI), S. aureus; settings: Staphylococcus aureus, MRSA / NRS 384 / USA300, 22 h
Procedure: (§2) In vitro antimicrobial activity of each compound was determined by measuring minimal inhibitor concentrations (MICs) using the broth micro-dilution technique as approved by the Clinical and Laboratory Standards Institute (CLSI) (Methods for Dilution Antimicrobial Susceptibility Tests for Bacteria that Grow Aerobically; Approved Standard—Eighth Edition. CLSI document M07-A8. Wayne, Pa.: Clinical and Laboratory Standards; 2009). Antibacterial activity was measure against three strains of bacteria: a Methicillin Resistant Staphylococcus aureus strain USA 300, NRS384 (S. aureus); a strain of Escherichia coli MC4100 harboring the IMP4213 (E. coli IMP), which results in increased outer-membrane permeability (B Martin and Silhavy T. Imp/OstA is required for cell envelope biogenesis in Escherichia coli. (2002) Molecular Microbiology, 45(5), 1289-1302), and Escherichia coli ATCC 25922 (E. coli), a clinically relevant Gram-negative strain. Cells were inoculated onto plates of Trypyticase Soy Agar or Luria Agar respectively and grown at 35° C. for 20 hours. Inocula suspensions were prepared by scraping cells into 1 mL of testing media (cation adjusted Mueller Hinton Broth supplemented with 0.002% v/v Tween-80) and diluting to a final OD600 nm of 0.01.
as §1

[3] = system: Escherichia coli MC4100 harboring the IMP4213 (E. coli IMP); test: microbe, parasite or virus in culture; settings: Escherichia coli, 22 h
Procedure: as §2, §1

[4] = read-out: MIC (μg/mL) E. coli, E. coli ATCC 25922, 35° C., 22 hours
[5] = read-out: MIC (μg/mL) S. aureus, MRSA USA 300 NRS384, 35° C., 22 hours
[6] = read-out: MIC (μg/mL) E. coli IMP, E. coli MC4100 IMP4213, increased outer-membrane permeability, 35° C., 22 hours
[7] = E. coli ATCC 25922, 35° C., 22 hours, read-out: MIC (μg/mL) E. coli
[8] = MRSA USA 300 NRS384, 35° C., 22 hours, read-out: MIC (μg/mL) S. aureus
[9] = read-out: MIC (μg/mL) S. aureus
[10] = read-out: MIC (μg/mL) E. coli IMP

| SMILES | MIC [1, 4] [µg/mL] | MIC [2, 5] [µg/mL] | MIC [3, 6] [µg/mL] | MIC [1, 7] [µg/mL] | MIC [2, 8] [µg/mL] | MIC ([1]; read-out: MIC (μg/mL) E. coli) [µg/mL] | MIC [2, 9] [µg/mL] | MIC [3, 10] [µg/mL] |
| --- | --- | --- | --- | --- | --- | --- | --- | --- |
| CCCCCCCCCC(=O)N[C@H](C(=O)N[C@@H](CCN)C(=O)N(C)[C@@H]1C(=O)N[C@@H](C)C(=O)N[C@H](C(=O)NCC#N)Cc2ccc(OCCN)c(c2)-c2cc1ccc2OCCN)[C@@H](C)O [Compound 356] | 12 (≈ 13.4 µM) | 0.094 (≈ 0.105 µM) | 0.13 (≈ 0.146 µM) |  |  |  |  |  |
| CCCCCCCCCC(=O)N[C@H](CO)C(=O)N[C@@H](CCN)C(=O)N(C)[C@@H]1C(=O)N[C@@H](C)C(=O)N[C@H](C(=O)NCC#N)Cc2ccc(OCCN)c(c2)-c2cc1ccc2OCCN [Compound 359] | 16 (≈ 18.2 µM) | 0.063 (≈ 0.0717 µM) | 0.13 (≈ 0.148 µM) |  |  |  |  |  |
| CCCCCCCCCNC(=O)CC(=O)N[C@@H](CCN)C(=O)N(C)[C@@H]1C(=O)N[C@@H](C)C(=O)N[C@H](C(=O)NCC#N)Cc2ccc(OCCN)c(c2)-c2cc1ccc2OCCN [Compound 361] |  |  | 0.13 (≈ 0.153 µM) | 16 (≈ 18.8 µM) | 0.13 (≈ 0.153 µM) |  |  |  |
| CCCCCCCCCC(=O)NCC(=O)NCC(=O)N[C@@H](CCN)C(=O)N(C)[C@@H]1C(=O)N[C@@H](C)C(=O)N[C@H](C(=O)NCC#N)Cc2ccc(OCCN)c(c2)-c2cc1ccc2OCCN [Compound 362] | 32 (≈ 35.3 µM) | 0.25 (≈ 0.276 µM) | 0.5 (≈ 0.552 µM) |  |  |  |  |  |
| CCCCCCCCCC(=O)N[C@@H](C)C(=O)NCC(=O)N[C@@H](CCN)C(=O)N(C)[C@@H]1C(=O)N[C@@H](C)C(=O)N[C@H](C(=O)NCC#N)Cc2ccc(OCCN)c(c2)-c2cc1ccc2OCCN [Compound 363] | 64 (≈ 69.6 µM) | 0.25 (≈ 0.272 µM) | 0.5 (≈ 0.543 µM) |  |  |  |  |  |
| CCCCCCCCCC(=O)N[C@@H](C)C(=O)NCCC(=O)N[C@@H](CCN)C(=O)N(C)[C@@H]1C(=O)N[C@@H](C)C(=O)N[C@H](C(=O)NCC#N)Cc2ccc(OCCN)c(c2)-c2cc1ccc2OCCN [Compound 364] |  |  | 0.75 (≈ 0.803 µM) | 48 (≈ 51.4 µM) | 0.38 (≈ 0.407 µM) |  |  |  |
| CCCCCCCCCC(=O)N[C@H](C)C(=O)NCCC(=O)N[C@@H](CCN)C(=O)N(C)[C@@H]1C(=O)N[C@@H](C)C(=O)N[C@H](C(=O)NCC#N)Cc2ccc(OCCN)c(c2)-c2cc1ccc2OCCN [Compound 365] |  |  | 0.5 (≈ 0.535 µM) | 64 (≈ 68.5 µM) | 0.38 (≈ 0.407 µM) |  |  |  |
| CCCCCCCCCC(=O)NCCC(=O)NCC(=O)N[C@@H](CCN)C(=O)N(C)[C@@H]1C(=O)N[C@@H](C)C(=O)N[C@H](C(=O)NCC#N)Cc2ccc(OCCN)c(c2)-c2cc1ccc2OCCN [Compound 368] | 64 (≈ 69.6 µM) | 0.25 (≈ 0.272 µM) | 1 (≈ 1.09 µM) |  |  |  |  |  |
| CCCCCCCCCC(=O)N[C@H](C)C(=O)N[C@@H](CCN)C(=O)N(C)[C@@H]1C(=O)N[C@@H](C)C(=O)N[C@H](C(=O)NCC#N)Cc2ccc(OCCN)c(c2)-c2cc1ccc2OCCN [Compound 374] | 16 (≈ 18.5 µM) | 0.19 (≈ 0.22 µM) | 0.13 (≈ 0.151 µM) |  |  |  |  |  |
| CCCCCCCCCC(=O)NCCC(=O)NCCC(=O)N[C@@H](CCN)C(=O)N(C)[C@@H]1C(=O)N[C@@H](C)C(=O)N[C@H](C(=O)NCC#N)Cc2ccc(OCCN)c(c2)-c2cc1ccc2OCCN [Compound 376] |  |  | 2.3 (≈ 2.46 µM) | > 64 | 0.5 (≈ 0.535 µM) |  |  |  |
| CCCCc1ccc(C(=O)N[C@@H](CCN)C(=O)N[C@@H](C)C(=O)N(C)[C@@H]2C(=O)N[C@@H](C)C(=O)N[C@H](C(=O)NCC#N)Cc3ccc(OCCN)c(c3)-c3cc2ccc3OCCN)c(C)c1 [Compound 380] | 64 (≈ 72.5 µM) | > 4 | 4 (≈ 4.53 µM) |  |  |  |  |  |
| CCCCc1ccc(C(=O)N[C@@H](CCO)C(=O)N[C@@H](CCN)C(=O)N(C)[C@@H]2C(=O)N[C@@H](C)C(=O)N[C@H](C(=O)NCC#N)Cc3ccc(OCCN)c(c3)-c3cc2ccc3OCCN)c(C)c1 [Compound 382] | 64 (≈ 70.1 µM) | 0.5 (≈ 0.548 µM) | 0.5 (≈ 0.548 µM) |  |  |  |  |  |
| CCCCCCCCCC(=O)N[C@@H](CCC(N)=O)C(=O)N[C@@H](CCN)C(=O)N(C)[C@@H]1C(=O)N[C@@H](C)C(=O)N[C@H](C(=O)NCC#N)Cc2ccc(OCCN)c(c2)-c2cc1ccc2OCCN [Compound 385] | 32 (≈ 34.8 µM) | 0.25 (≈ 0.272 µM) | 0.5 (≈ 0.543 µM) |  |  |  |  |  |
| CCCCCCCCCC(=O)N[C@@H](CCNC(C)=O)C(=O)N[C@@H](CCN)C(=O)N(C)[C@@H]1C(=O)N[C@@H](C)C(=O)N[C@H](C(=O)NCC#N)Cc2ccc(OCCN)c(c2)-c2cc1ccc2OCCN [Compound 386] | 64 (≈ 68.5 µM) | 0.38 (≈ 0.407 µM) | 0.5 (≈ 0.535 µM) |  |  |  |  |  |
| CCCCCCCCCCCC(=O)N[C@@H](CC(=O)O)C(=O)N[C@@H](CN)C(=O)N(C)[C@@H]1C(=O)N[C@@H](C)C(=O)N[C@H](C(=O)NCC#N)Cc2ccc(OCCN)c(c2)-c2cc1ccc2OCCN [Compound 387] | 64 (≈ 69.5 µM) | 0.25 (≈ 0.271 µM) | 0.38 (≈ 0.413 µM) |  |  |  |  |  |
| CCCCCCCCCC(=O)N(C)[C@@H](CO)C(=O)N[C@@H](CCN)C(=O)N(C)[C@@H]1C(=O)N[C@@H](C)C(=O)N[C@H](C(=O)NCC#N)Cc2ccc(OCCN)c(c2)-c2cc1ccc2OCCN [Compound 388] | 48 (≈ 53.7 µM) | 0.25 (≈ 0.28 µM) | 0.25 (≈ 0.28 µM) |  |  |  |  |  |
| CCCCCCCc1ccc(C(=O)N(C)[C@@H](CCN)C(=O)N(C)[C@@H]2C(=O)N[C@@H](C)C(=O)N[C@H](C(=O)NCC#N)Cc3ccc(OCCN)c(c3)-c3cc2ccc3OCCN)cc1 [Compound 396] |  |  |  |  |  | 16 (≈ 18.7 µM) | 0.094 (≈ 0.11 µM) | 0.094 (≈ 0.11 µM) |
| CCCCc1ccc(C(=O)N(C)[C@@H](CCN)C(=O)N(C)[C@@H]2C(=O)N[C@@H](C)C(=O)N[C@H](C(=O)NCC#N)Cc3ccc(OCCN)c(c3)-c3cc2ccc3OCCN)c(C)c1 [Compound 397] |  |  | 0.38 (≈ 0.46 µM) | 64 (≈ 77.5 µM) | 3 (≈ 3.63 µM) |  |  |  |
| CCCCCCCCCCCC(=O)N(C)[C@@H](CCN)C(=O)N(C)[C@@H]1C(=O)N[C@@H](C)C(=O)N[C@H](C(=O)NCC#N)Cc2ccc(OCCN)c(c2)-c2cc1ccc2OCCN [Compound 398] |  |  | 0.13 (≈ 0.156 µM) | 16 (≈ 19.2 µM) | 0.13 (≈ 0.156 µM) |  |  |  |
| CCCCCCCCCC(=O)N[C@@H](CO)C(=O)N(C)[C@@H](CCN)C(=O)N(C)[C@@H]1C(=O)N[C@@H](C)C(=O)N[C@H](C(=O)NCC#N)Cc2ccc(OCCN)c(c2)-c2cc1ccc2OCCN [Compound 399] | 16 (≈ 17.9 µM) | 0.25 (≈ 0.28 µM) | 0.19 (≈ 0.213 µM) |  |  |  |  |  |
| CCCCCCCCNC(=O)N[C@@H](CCN)C(=O)N(C)[C@@H]1C(=O)N[C@@H](C)C(=O)N[C@H](C(=O)NCC#N)Cc2ccc(OCCN)c(c2)-c2cc1ccc2OCCN [Compound 402] |  |  | 0.19 (≈ 0.24 µM) | 32 (≈ 40.4 µM) | 0.38 (≈ 0.479 µM) |  |  |  |
| CCCCCCCCc1ccc(C(=O)N[C@@H](CCN)C(=O)N(C)[C@@H]2C(=O)N[C@@H](C)C(=O)N[C@H](C(=O)NCC#N)Cc3ccc(OCCN)c(c3)-c3cc2ccc3OCCN)c(OCC(=O)O)c1 [Compound 409] |  |  | < 0.0039 | 0.5 (≈ 0.539 µM) | 0.25 (≈ 0.269 µM) |  |  |  |
| CCCCCCCCc1ccc(C(=O)N[C@@H](CCN)C(=O)N(C)[C@@H]2C(=O)N[C@@H](C)C(=O)N[C@H](C(=O)NCC#N)Cc3ccc(OCCN)c(c3)-c3cc2ccc3OCCN)c(OCC(=O)NCC#N)c1 [Compound 410] |  |  | 0.13 (≈ 0.135 µM) | 6 (≈ 6.21 µM) | 0.13 (≈ 0.135 µM) |  |  |  |
| Cc1cc(-n2cccn2)ccc1C(=O)N[C@@H](CCN)C(=O)N(C)[C@@H]1C(=O)N[C@@H](C)C(=O)N[C@H](C(=O)NCC#N)Cc2ccc(OCCN)c(c2)-c2cc1ccc2OCCN [Compound 411] |  |  |  |  |  | 16 (≈ 19.5 µM) | 2 (≈ 2.43 µM) | 0.5 (≈ 0.608 µM) |
| CCCCCCCCc1ccc(C(=O)N[C@@H](CCN)C(=O)N(C)[C@@H]2C(=O)N[C@@H](C)C(=O)N[C@H](C(=O)NCC#N)Cc3ccc(OCCN)c(c3)-c3cc2ccc3OCCN)c(/C=C/C(=O)O)c1 [Compound 414] |  |  |  |  |  | 64 (≈ 69.3 µM) | 0.5 (≈ 0.541 µM) | 0.25 (≈ 0.271 µM) |
